# Assays:
# Histone deacetylase = test: Effective concentration for inhibition of histone deacetylase; type: protein assay, Homo sapiens
# [1] = target: T1, Protein deacetylase HDAC6 (Homo sapiens, UniProt Q9UBN7)
# T1 sequence (Q9UBN7 whole entry): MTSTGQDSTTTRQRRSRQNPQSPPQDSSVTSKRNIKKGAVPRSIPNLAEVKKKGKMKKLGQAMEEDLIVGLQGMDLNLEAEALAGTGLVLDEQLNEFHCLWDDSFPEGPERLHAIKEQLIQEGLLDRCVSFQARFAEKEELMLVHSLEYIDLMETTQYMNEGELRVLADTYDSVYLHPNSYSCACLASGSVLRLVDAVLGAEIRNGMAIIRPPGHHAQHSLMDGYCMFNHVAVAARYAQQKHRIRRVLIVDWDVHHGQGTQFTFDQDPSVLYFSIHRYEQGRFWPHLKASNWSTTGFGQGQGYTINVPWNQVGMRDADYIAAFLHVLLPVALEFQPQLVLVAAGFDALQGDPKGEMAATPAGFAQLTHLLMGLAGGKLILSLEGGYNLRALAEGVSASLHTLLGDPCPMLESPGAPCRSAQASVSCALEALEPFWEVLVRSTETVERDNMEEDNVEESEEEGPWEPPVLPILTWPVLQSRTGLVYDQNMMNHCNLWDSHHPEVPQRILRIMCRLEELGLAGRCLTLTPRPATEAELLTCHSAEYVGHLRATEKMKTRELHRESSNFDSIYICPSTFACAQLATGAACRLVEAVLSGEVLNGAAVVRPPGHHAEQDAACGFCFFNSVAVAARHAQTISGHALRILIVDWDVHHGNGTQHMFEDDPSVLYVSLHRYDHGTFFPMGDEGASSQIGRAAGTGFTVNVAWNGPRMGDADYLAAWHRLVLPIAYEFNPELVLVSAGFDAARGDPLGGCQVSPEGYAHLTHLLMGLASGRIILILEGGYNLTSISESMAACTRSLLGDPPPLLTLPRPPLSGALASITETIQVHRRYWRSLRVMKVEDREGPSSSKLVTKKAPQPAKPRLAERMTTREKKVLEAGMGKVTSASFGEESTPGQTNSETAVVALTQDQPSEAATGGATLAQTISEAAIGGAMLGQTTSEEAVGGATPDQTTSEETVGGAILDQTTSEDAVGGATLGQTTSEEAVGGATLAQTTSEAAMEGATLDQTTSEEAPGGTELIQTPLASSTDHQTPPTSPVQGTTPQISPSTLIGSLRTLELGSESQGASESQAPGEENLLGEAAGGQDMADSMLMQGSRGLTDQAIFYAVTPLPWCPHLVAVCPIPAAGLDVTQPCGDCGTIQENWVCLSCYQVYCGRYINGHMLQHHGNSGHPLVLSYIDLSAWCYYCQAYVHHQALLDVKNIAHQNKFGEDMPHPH
# Histone deacetylase 1 = Histone deacetylase 1 (Homo sapiens, UniProt Q13547)
# Histone deacetylase 4 = Histone deacetylase 4 (Homo sapiens, UniProt P56524)
# Histone deacetylase 4, sequence (P56524 whole entry): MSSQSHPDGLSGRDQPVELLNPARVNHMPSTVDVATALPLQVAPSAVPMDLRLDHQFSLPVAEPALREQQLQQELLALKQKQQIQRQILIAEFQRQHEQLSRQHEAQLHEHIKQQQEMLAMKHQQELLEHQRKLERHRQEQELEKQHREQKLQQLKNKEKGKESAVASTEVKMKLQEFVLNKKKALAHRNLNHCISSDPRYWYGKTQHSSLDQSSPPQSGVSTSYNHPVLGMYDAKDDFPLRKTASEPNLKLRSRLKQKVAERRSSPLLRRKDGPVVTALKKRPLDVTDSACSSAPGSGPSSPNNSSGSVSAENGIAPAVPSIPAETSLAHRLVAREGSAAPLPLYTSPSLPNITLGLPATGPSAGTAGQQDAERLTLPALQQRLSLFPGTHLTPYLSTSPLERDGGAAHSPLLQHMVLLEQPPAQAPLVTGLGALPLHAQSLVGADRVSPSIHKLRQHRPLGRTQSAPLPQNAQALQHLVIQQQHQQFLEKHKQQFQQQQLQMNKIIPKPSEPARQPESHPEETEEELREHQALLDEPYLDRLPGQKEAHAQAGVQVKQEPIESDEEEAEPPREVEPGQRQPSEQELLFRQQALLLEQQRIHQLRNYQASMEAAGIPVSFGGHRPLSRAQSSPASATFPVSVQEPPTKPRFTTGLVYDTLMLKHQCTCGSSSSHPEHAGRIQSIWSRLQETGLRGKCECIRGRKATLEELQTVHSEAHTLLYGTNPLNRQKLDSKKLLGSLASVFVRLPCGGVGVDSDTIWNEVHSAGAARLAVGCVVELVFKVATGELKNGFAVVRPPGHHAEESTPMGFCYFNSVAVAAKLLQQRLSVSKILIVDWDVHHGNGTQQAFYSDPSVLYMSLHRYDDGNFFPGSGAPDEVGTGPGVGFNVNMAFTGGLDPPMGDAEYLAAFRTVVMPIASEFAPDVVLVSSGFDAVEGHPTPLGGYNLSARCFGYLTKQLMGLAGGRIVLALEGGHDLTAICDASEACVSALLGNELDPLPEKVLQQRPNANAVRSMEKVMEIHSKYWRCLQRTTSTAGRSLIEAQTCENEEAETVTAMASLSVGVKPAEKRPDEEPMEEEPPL
# Histone deacetylase 1, sequence (Q13547 whole entry): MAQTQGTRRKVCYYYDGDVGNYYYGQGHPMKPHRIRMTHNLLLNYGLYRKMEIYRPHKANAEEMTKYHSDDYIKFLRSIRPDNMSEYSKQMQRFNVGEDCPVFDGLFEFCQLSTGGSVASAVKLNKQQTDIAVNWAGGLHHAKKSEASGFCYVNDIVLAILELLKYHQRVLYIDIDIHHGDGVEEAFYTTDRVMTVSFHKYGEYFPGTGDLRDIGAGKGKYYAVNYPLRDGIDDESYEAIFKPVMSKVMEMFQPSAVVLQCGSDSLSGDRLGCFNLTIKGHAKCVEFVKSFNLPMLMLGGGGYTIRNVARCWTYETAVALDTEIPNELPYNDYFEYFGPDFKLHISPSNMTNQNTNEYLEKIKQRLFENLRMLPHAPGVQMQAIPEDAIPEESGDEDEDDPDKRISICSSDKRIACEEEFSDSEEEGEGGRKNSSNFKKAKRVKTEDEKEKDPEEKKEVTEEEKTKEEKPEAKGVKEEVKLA
Compound,EC50 (Histone deacetylase) [nM],other results
C[C@H](c1ccccc1)N1C(=O)c2ccc(/C=C/C(=O)NO)cc2C1=O,291,
O=C(/C=C/c1ccc2c(c1)C(=O)N(CCc1ccccc1)C2=O)NO,177,
O=C(NO)c1ccc2c(c1)C(=O)N(c1ccccc1)C2=O,125000,
COc1ccc(CN2C(=O)c3ccc(/C=C/C(=O)NO)cc3C2=O)cc1,186,
O=C(NO)c1ccc2c(c1)C(=O)N(Cc1ccccc1)C2=O,4160,
O=C(/C=C/c1ccc2c(c1)C(=O)N(C(c1ccccc1)c1ccccc1)C2=O)NO,2090,
O=C(NO)c1ccc2c(c1)C(=O)N(CCc1ccccc1)C2=O,6630,
O=C(/C=C/c1ccc2c(c1)C(=O)N(Cc1ccccc1)C2=O)NO,148,IC50 [1]: 709 nM; IC50 (Histone deacetylase 1): 572 nM; IC50 (Histone deacetylase 4): 358 nM
O=C(/C=C/c1ccc2c(c1)C(=O)N(CC(c1ccccc1)c1ccccc1)C2=O)NO,7890,
O=C(CCc1ccc2c(c1)C(=O)N(Cc1ccccc1)C2=O)NO,407,
O=C(/C=C/c1ccc2c(c1)C(=O)N([C@H](COC(=O)c1ccccc1)c1ccccc1)C2=O)NO,763,
Cc1ccc(CN2C(=O)c3ccc(/C=C/C(=O)NO)cc3C2=O)cc1,474,
O=C(/C=C/c1ccc2c(c1)C(=O)N([C@@H](COC(=O)c1ccccc1)c1ccccc1)C2=O)NO,3790,
O=C(/C=C/c1ccc2c(c1)C(=O)N(c1ccccc1)C2=O)NO,2080,
C[C@@H](c1ccccc1)N1C(=O)c2ccc(/C=C/C(=O)NO)cc2C1=O,250,

# Reference: ChEMBL document CHEMBL1142838, “Design and synthesis of phthalimide-type histone deacetylase inhibitors” (Bioorg Med Chem Lett, 2005)
